# From US7491819B1 (priority 2004, dated 2009)
# Biological target: T1, HIV-integrase (Human immunodeficiency virus type 1 group M subtype B, UniProt P12497)
# T1 construct: Recombinant integrase (0.26 ng) was incubated with the beads
# Assay: HIV-Integrase Inhibition Activity (SPA bead strand-transfer assay)
# Type: biochemical
# Settings: Table 1; read-out: Activity (HIV-integrase inhibition, IC50 class)
# Outline: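 Biotin-labelled substrate DNA (5 pmole) bound to streptavidin SPA beads, preloaded with recombinant integrase (0.26 ng) for 90 min at 37° C, then washed. Inhibitors and 0.1 fmol P33-labelled target DNA added; reaction stopped with 10 mM EDTA. Integration read as scintillation CPM.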
row,SMILES,IC50 [nM]
1,"CN(C)S(=O)(=O)c1cc(F)ccc1CNC(=O)c1nc2n(c(=O)c1O)CCCOC2(C)C [Example 204, 6H-Pyrimido[2,1-c][1,4]oxazepine-2-carboxamide, N-[[2-[(dimethylamino)sulfonyl]-4-fluorophenyl]methyl]-4,7,8,10-tetrahydro-3-hydroxy-10,10-dimethyl-4-oxo-]",2 to 100
2,"CCC1(CC)OCCn2c1nc(C(=O)NCc1ccc(F)cc1S(=O)(=O)N(C)C)c(O)c2=O [Example 205, Pyrimido[2,1-c][1,4]oxazine-2-carboxamide, N-[[2-[(dimethylamino)sulfonyl]-4-fluorophenyl]methyl]-9,9-diethyl-4,6,7,9-tetrahydro-3-hydroxy-4-oxo-]",2 to 100
3,"CC1(C)OCCCn2c1nc(C(=O)NCc1ccccc1N1CCCCS1(=O)=O)c(O)c2=O [Example 206, 6H-pyrimido[2,1-c][1,4]oxazepine-2-carboxamide, 4,7,8,10-tetrahydro-3-hydroxy-10,10-dimethyl-4-oxo-N-[[2-(tetrahydro-1,1-dioxido-2H-1,2-thiazin-2-yl)phenyl]methyl]-]",2 to 100
4,"CCC1(CC)OCCn2c1nc(C(=O)NCc1ccccc1N1CCCCS1(=O)=O)c(O)c2=O [Example 207, Pyrimido[2,1-c][1,4]oxazine-2-carboxamide, 4,6,7,9-tetrahydro-3-hydroxy-9,9-diethyl-4-oxo-N-[[2-(tetrahydro-1,1-dioxido-2H-1,2-thiazin-2-yl)phenyl]methyl]]",2 to 100
5,"CSCCC1OCCn2c1nc(C(=O)NCc1ccc(F)cc1)c(O)c2=O (stereo not shown) [Example 208, Pyrimido[2,1-c][1,4]oxazine-2-carboxamide, N-[(4-fluorophenyl)methyl]-4,6,7,9-tetrahydro-3-hydroxy-9-[2-(methylthio)ethyl]-4-oxo-]",2 to 100
6,"CS(=O)(=O)CCC1OCCn2c1nc(C(=O)NCc1ccc(F)cc1)c(O)c2=O (stereo not shown) [Example 209, Pyrimido[2,1-c][1,4]oxazine-2-carboxamide, N-[(4-fluorophenyl)methyl]-4,6,7,9-tetrahydro-3-hydroxy-9-[2-(methylsulfonyl)ethyl]-4-oxo-]",2 to 100
7,"Cc1cc(-c2cc(F)ccc2CNC(=O)c2nc3n(c(=O)c2O)CCOC3(C)C)on1 [Example 210, Pyrimido[2,1-c][1,4]oxazine-2-carboxamide, N-[[4-fluoro-2-(3-methyl-5-isoxazolyl)phenyl]methyl]-4,6,7,9-tetrahydro-3-hydroxy-9,9-dimethyl-4-oxo-]",2 to 100
8,"C/C(N)=C/C(=O)c1cc(F)ccc1CNC(=O)c1nc2n(c(=O)c1O)CCOC2(C)C [Example 211, Pyrimido[2,1-c][1,4]oxazine-2-carboxamide, N-[[2-[(2Z)-3-amino-1-oxo-2-butenyl]-4-fluorophenyl]methyl]-4,6,7,9-tetrahydro-3-hydroxy-9,9-dimethyl-4-oxo-]",2 to 100
9,"CC1(C)OCCn2c1nc(C(=O)NCc1ccc(F)cc1-c1cc(Br)no1)c(O)c2=O [Example 212, Pyrimido[2,1-c][1,4]oxazine-2-carboxamide, N-[[2-(3-bromo-5-isoxazolyl)-4-fluorophenyl]methyl]-4,6,7,9-tetrahydro-3-hydroxy-9,9-dimethyl-4-oxo-]",2 to 100
10,"CON(Cc1ccc(F)cc1)C(=O)c1nc2n(c(=O)c1O)CCOC2(C)C [Example 214, Pyrimido[2,1-c][1,4]oxazine-2-carboxamide, N-[(4-fluorophenyl)methyl]-4,6,7,9-tetrahydro-3-hydroxy-N-methoxy-9,9-dimethyl-4-oxo-]",> 1000
11,"CC1(C)OCCn2c1nc(C(=O)NCc1ccccc1N1CCCCS1(=O)=O)c(O)c2=O [Example 215, Pyrimido[2,1-c][1,4]oxazine-2-carboxamide, 4,6,7,9-tetrahydro-3-hydroxy-9,9-dimethyl-4-oxo-N-[[2-(tetrahydro-1,1-dioxido-2H-1,2-thiazin-2-yl)phenyl]methyl]-]",2 to 100
12,"CC1(C)OCCn2c1nc(C(=O)NCc1ccccc1-n1cncn1)c(O)c2=O [Example 216, Pyrimido[2,1-c][1,4]oxazine-2-carboxamide, 4,6,7,9-tetrahydro-3-hydroxy-9,9-dimethyl-4-oxo-N-[[2-(1H-1,2,4-triazol-1-yl)phenyl]methyl]-]",2 to 100
13,"CC1(C)OCCn2c1nc(C(=O)NCCCc1ccccc1)c(O)c2=O [Example 217, Pyrimido[2,1-c][1,4]oxazine-2-carboxamide, 4,6,7,9-tetrahydro-3-hydroxy-9,9-dimethyl-4-oxo-N-(3-phenylpropyl)-]",2 to 100
14,"CC1(C)OCCn2c1nc(C(=O)NCc1ccc3c(c1)OCO3)c(O)c2=O [Example 218, Pyrimido[2,1-c][1,4]oxazine-2-carboxamide, N-(1,3-benzodioxol-5-ylmethyl)-4,6,7,9-tetrahydro-3-hydroxy-9,9-dimethyl-4-oxo-]",2 to 100
15,"CC1(C)OCCn2c1nc(C(=O)NCc1ccccc1)c(O)c2=O [Example 219, Pyrimido[2,1-c][1,4]oxazine-2-carboxamide, 4,6,7,9-tetrahydro-3-hydroxy-9,9-dimethyl-4-oxo-N-(phenylmethyl)-]",2 to 100
16,"CC1(C)OCCn2c1nc(C(=O)NCc1cccc(F)c1)c(O)c2=O [Example 220, Pyrimido[2,1-c][1,4]oxazine-2-carboxamide, N-[(3-fluorophenyl)methyl]-4,6,7,9-tetrahydro-3-hydroxy-9,9-dimethyl-4-oxo-]",2 to 100

row,SMILES,IC50 [nM]
1,"CC1(C)OCCn2c1nc(C(=O)NCc1ccc(Cl)c(Cl)c1)c(O)c2=O [Example 221, Pyrimido[2,1-c][1,4]oxazine-2-carboxamide, N-[(3,4-dichlorophenyl)methyl]-4,6,7,9-tetrahydro-3-hydroxy-9,9-dimethyl-4-oxo-]",2 to 100
2,"COc1cccc(CNC(=O)c2nc3n(c(=O)c2O)CCOC3(C)C)c1 [Example 222, Pyrimido[2,1-c][1,4]oxazine-2-carboxamide, 4,6,7,9-tetrahydro-3-hydroxy-N-[(3-methoxyphenyl)methyl]-9,9-dimethyl-4-oxo-]",2 to 100
3,"Cc1cccc(CNC(=O)c2nc3n(c(=O)c2O)CCOC3(C)C)c1 [Example 223, Pyrimido[2,1-c][1,4]oxazine-2-carboxamide, 4,6,7,9-tetrahydro-3-hydroxy-9,9-dimethyl-N-[(3-methylphenyl)methyl]-4-oxo-]",2 to 100
4,"CC1(C)OCCn2c1nc(C(=O)NCc1cc(F)ccc1F)c(O)c2=O [Example 224, Pyrimido[2,1-c][1,4]oxazine-2-carboxamide, N-[(2,5-difluorophenyl)methyl]-4,6,7,9-tetrahydro-3-hydroxy-9,9-dimethyl-4-oxo-]",2 to 100
5,"COc1cc(CNC(=O)c2nc3n(c(=O)c2O)CCOC3(C)C)ccc1O [Example 225, Pyrimido[2,1-c][1,4]oxazine-2-carboxamide, 4,6,7,9-tetrahydro-3-hydroxy-N-[(4-hydroxy-3-methoxyphenyl)methyl]-9,9-dimethyl-4-oxo-]",2 to 100
6,"CC1(C)OCCn2c1nc(C(=O)NCc1cccc(Cl)c1)c(O)c2=O [Example 226, Pyrimido[2,1-c][1,4]oxazine-2-carboxamide, N-[(3-chlorophenyl)methyl]-4,6,7,9-tetrahydro-3-hydroxy-9,9-dimethyl-4-oxo-]",2 to 100
7,"CC1(C)OCCn2c1nc(C(=O)NCc1cccc(Cl)c1Cl)c(O)c2=O [Example 227, Pyrimido[2,1-c][1,4]oxazine-2-carboxamide, N-[(2,3-dichlorophenyl)methyl]-4,6,7,9-tetrahydro-3-hydroxy-9,9-dimethyl-4-oxo-]",2 to 100
8,"CC1(C)OCCn2c1nc(C(=O)NCc1cc(Cl)ccc1Cl)c(O)c2=O [Example 228, Pyrimido[2,1-c][1,4]oxazine-2-carboxamide, N-[(2,5-dichlorophenyl)methyl]-4,6,7,9-tetrahydro-3-hydroxy-9,9-dimethyl-4-oxo-]",2 to 100
9,"COc1cccc(CNC(=O)c2nc3n(c(=O)c2O)CCOC3(C)C)c1OC [Example 229, Pyrimido[2,1-c][1,4]oxazine-2-carboxamide, N-[(2,3-dimethoxyphenyl)methyl]-4,6,7,9-tetrahydro-3-hydroxy-9,9-dimethyl-4-oxo-]",2 to 100
10,"CC1(C)OCCn2c1nc(C(=O)NCc1ccc3c(c1)OCCO3)c(O)c2=O [Example 230, Pyrimido[2,1-c][1,4]oxazine-2-carboxamide, N-[(2,3-dihydro-1,4-benzodioxin-6-yl)methyl]-4,6,7,9-tetrahydro-3-hydroxy-9,9-dimethyl-4-oxo-]",2 to 100
11,"Cc1ccc(CNC(=O)c2nc3n(c(=O)c2O)CCOC3(C)C)cc1Cl [Example 231, Pyrimido[2,1-c][1,4]oxazine-2-carboxamide, N-[(3-chloro-4-methylphenyl)methyl]-4,6,7,9-tetrahydro-3-hydroxy-9,9-dimethyl-4-oxo-]",2 to 100
12,"COc1ccc(CNC(=O)c2nc3n(c(=O)c2O)CCOC3(C)C)c(OC)c1 [Example 232, Pyrimido[2,1-c][1,4]oxazine-2-carboxamide, N-[(2,4-dimethoxyphenyl)methyl]-4,6,7,9-tetrahydro-3-hydroxy-9,9-dimethyl-4-oxo-]",2 to 100
13,"Cc1cccc(CNC(=O)c2nc3n(c(=O)c2O)CCOC3(C)C)c1C [Example 233, Pyrimido[2,1-c][1,4]oxazine-2-carboxamide, N-[(2,3-dimethylphenyl)methyl]-4,6,7,9-tetrahydro-3-hydroxy-9,9-dimethyl-4-oxo-]",2 to 100
14,"COc1ccc(OC)c(CNC(=O)c2nc3n(c(=O)c2O)CCOC3(C)C)c1 [Example 235, Pyrimido[2,1-c][1,4]oxazine-2-carboxamide, N-[(2,5-dimethoxyphenyl)methyl]-4,6,7,9-tetrahydro-3-hydroxy-9,9-dimethyl-4-oxo-]",2 to 100
15,"Cc1c(Cl)cccc1CNC(=O)c1nc2n(c(=O)c1O)CCOC2(C)C [Example 236, Pyrimido[2,1-c][1,4]oxazine-2-carboxamide, N-[(3-chloro-2-methylphenyl)methyl]-4,6,7,9-tetrahydro-3-hydroxy-9,9-dimethyl-4-oxo-]",2 to 100
